Measurements: US10669296B2, “LXR agonists and uses thereof” (Rgenix, Inc., priority 2014, dated 2020)

Key:
[1] = system: ApoE; assay: ApoE gene expression analysis by qRT-PCR in MeWo cancer cells; type: cell-based; conditions: 48 h; for Emax at 1 µM / Emax at 10 µM: read-out: ApoE gene expression in relation to GW3965 at 1 μM (100%)
Method: Cancer cells (MeWo) were treated in presence of drug or control (DMSO) at indicated concentrations for 48 h. RNA was extracted from whole cell lysates using the Total RNA Purification Kit (17200, Norgen, Thorold, Canada). 600 ng of total RNA was then reverse transcribed into cDNA using the Verso cDNA Synthesis Kit (AB-1453/B, Fisher Scientific). 6 ng of the resulting cDNA was then mixed with SYBR green PCR Master Mix (4309155, Applied Biosystems) and the appropriate primers. Each reaction was performed in quadruplicate, and mRNA expression was quantified by performing real-time PCR amplification using a StepOne Plus Real-Time PCR System (Applied Biosystems). GAPDH was used as an endogenous control for normalization. EC50 values were calculated using Prism6 software and plotting expression values versus drug concentration. The following primers were used: [table] The results are shown in relation to GW3965 ApoE expression at 1 μM (i.e. 100%).

[2] = system: Cancer cells (MeWo); assay: Matrigel invasion assay; type: cell-based; conditions: 1 μM drug, invasion 24 h
Method: Cancer cells (MeWo) were pre-treated in presence of 1 μM drug or control (DMSO) for 72 h after which cancer cells were switched to serum-starvation in 0.2% FBS DMEM-based media for 16 h in the presence of the drug or control, respectively. Trans-well invasion chambers (354480, BD Biosciences, Bedford, Mass.) were pre-equilibrated in DMEM-based media prior to the beginning of the assay by adding 0.5 ml of starvation media to the top and bottom chambers. After 30 min, the media in the top chamber was removed, and 0.5 ml of media containing 1×10^5 cancer cells in the presence of the drug, was added into each matrigel-coated trans-well insert. Cells were allowed to invade through the matrigel-coated inserts for 24 h at 37° C.

CC(CCOc1cccc(CC(=O)O)c1)N(Cc1cccc(C(F)(F)F)c1Cl)CC(c1ccccc1)c1ccccc1 (stereo not drawn) [SB742881, reference compound]
EC50 ([1]; Homo sapiens, MeWo): < 1000 nM | Emax at 1 µM ([1]; Homo sapiens, MeWo, 1 μM): > 40% | Emax at 10 µM ([1]; Homo sapiens, MeWo, 10 μM): > 40% | % of Cells Migrated Compared to Control [2]: <70%

O=C(Cc1cccc(OCCCN(Cc2cccc(C(F)(F)F)c2Cl)CC(c2ccccc2)c2ccccc2)c1)NO [Compound 1, 2-{3-[3-({[2-chloro-3-(trifluoromethyl)phenyl]methyl}(2,2-diphenylethy)amino)propoxy]phenyl}-N-hydroxyacetamide]
EC50 ([1]; Homo sapiens, MeWo): < 1000 nM | Emax at 1 µM ([1]; Homo sapiens, MeWo, 1 μM): > 80% | Emax at 10 µM ([1]; Homo sapiens, MeWo, 10 μM): < 40% | % of Cells Migrated Compared to Control [2]: <95%

C[C@H](CCO[C@H]1CCCN(S(C)(=O)=O)C1)N(Cc1cccc(C(F)(F)F)c1Cl)CC(c1ccccc1)c1ccccc1 [Compound 31, {[2-chloro-3-(trifluoromethyl)phenyl]methyl}(2,2-diphenylethyl)[(2R)-4-{[(3S)-1-methanesulfonylpiperidin-3-yl]oxy}butan-2-yl]amine]
EC50 ([1]; Homo sapiens, MeWo): < 1000 nM | Emax at 1 µM ([1]; Homo sapiens, MeWo, 1 μM): > 40% | Emax at 10 µM ([1]; Homo sapiens, MeWo, 10 μM): > 80% | % of Cells Migrated Compared to Control [2]: <70%

CC(C)(CN(CCCOc1cc(F)c(CO)c(S(C)(=O)=O)c1)Cc1cccc(C(F)(F)F)c1Cl)c1ccccc1 [Compound 82, {4-[3-({[2-chloro-3-(trifluoromethyl)phenyl]methyl}(2-methyl-2-phenylpropyl)amino)propoxy]-2-fluoro-6-methanesulfonylphenyl}methanol]
Emax at 1 µM ([1]; Homo sapiens, MeWo, 1 μM): > 40%

CS(=O)(=O)c1cc(OCCCN(Cc2cccc(OC(F)(F)F)c2)CC(c2ccccc2)c2ccccc2)cc(F)c1CO [Compound 74, (4-{3-[(2,2-diphenylethyl)({[3-(trifluoromethoxy)phenyl]methyl})amino]propoxy}-2-fluoro-6-methanesulfonylphenyl)methanol]
Emax at 1 µM ([1]; Homo sapiens, MeWo, 1 μM): > 40% | Emax at 10 µM ([1]; Homo sapiens, MeWo, 10 μM): > 40%

C[C@@H](CN(CCCOc1cc(F)c(CO)c(S(C)(=O)=O)c1)Cc1cccc(C(F)(F)F)c1Cl)c1ccccc1 [Compound 79, {4-[3-({[2-chloro-3-(trifluoromethyl)phenyl]methyl}[(2R)-2-phenylpropyl]amino)propoxy]-2-fluoro-6-methanesulfonylphenyl}methanol]
EC50 ([1]; Homo sapiens, MeWo): < 1000 nM | Emax at 1 µM ([1]; Homo sapiens, MeWo, 1 μM): > 80% | Emax at 10 µM ([1]; Homo sapiens, MeWo, 10 μM): > 80%

CS(=O)(=O)N1CC[C@H](OCCCN(Cc2cccc(C(F)(F)F)c2Cl)CC(c2ccccc2)c2ccccc2)C1 [Compound 61, {[2-chloro-3-(trifluoromethyl)phenyl]methyl}(2,2-diphenylethyl)(3-{[(3S)-1-methanesulfonylpyrrolidin-3-yl]oxy}propyl)amine]
Emax at 1 µM ([1]; Homo sapiens, MeWo, 1 μM): > 40% | Emax at 10 µM ([1]; Homo sapiens, MeWo, 10 μM): > 80%

CS(=O)(=O)c1cc(OCCCN(Cc2cccc(C(F)(F)F)c2Cl)CC(c2ccccc2)c2ccccc2)cc(F)c1CCO [Compound 91, 2-{4-[3-({[2-chloro-3-(trifluoromethyl)phenyl]methyl}(2,2-diphenylethyl)amino)propoxy]-2-fluoro-6-methanesulfonylphenyl} ethan-1-ol]
Emax at 1 µM ([1]; Homo sapiens, MeWo, 1 μM): > 80% | Emax at 10 µM ([1]; Homo sapiens, MeWo, 10 μM): > 40%

CN(C)C(=O)c1c(F)cc(OCCCN(Cc2cccc(C(F)(F)F)c2Cl)CC(c2ccccc2)c2ccccc2)cc1S(C)(=O)=O [Compound 96, 4-[3-({[2-chloro-3-(trifluoromethyl)phenyl]methyl}(2,2-diphenylethyl)amino)propoxy]-2-fluoro-6-methanesulfonyl-N,N-dimethylbenzamide]
Emax at 1 µM ([1]; Homo sapiens, MeWo, 1 μM): > 40%

CS(=O)(=O)N1CCC[C@@H](OCCCN(Cc2cccc(C(F)(F)F)c2Cl)CC(c2ccccc2)c2ccccc2)C1 [Compound 63, {[2-chloro-3-(trifluoromethyl)phenyl]methyl}(2,2-diphenylethyl)(3-{[(3R)-1-methanesulfonylpiperidin-3-yl]oxy}propyl)amine]
ApoE gene expression in relation to GW3965 at 1 μM (100%) ([1]; 1 μM): +++ (“+++” > 80% ApoE induction) | ApoE gene expression in relation to GW3965 at 1 μM (100%) ([1]; 10 μM): +++ (“+++” > 80% ApoE induction) | EC50 [1]: < 3000 nM

CS(=O)(=O)c1cc(OCCCN(Cc2cccc(C(F)(F)F)c2Cl)CC(c2ccccc2)c2ccccc2)cc(F)c1CN [Compound 88, {4-[3-({[2-chloro-3-(trifluoromethyl)phenyl]methyl}(2,2-diphenylethyl)amino)propoxy]-2-fluoro-6-methanesulfonylphenyl}methanamine]
Emax at 1 µM ([1]; Homo sapiens, MeWo, 1 μM): > 80%

CS(=O)(=O)c1cc(OCCCN(CCc2ccccc2)Cc2cccc(C(F)(F)F)c2Cl)cc(F)c1CO [Compound 81, {4-[3-({[2-chloro-3-(trifluoromethyl)phenyl]methyl}(2-phenylethyl)amino)propoxy]-2-fluoro-6-methanesulfonylphenyl}methanol]
EC50 ([1]; Homo sapiens, MeWo): < 300 nM | Emax at 1 µM ([1]; Homo sapiens, MeWo, 1 μM): > 40% | Emax at 10 µM ([1]; Homo sapiens, MeWo, 10 μM): > 40%

O=C(O)c1cccc(OCCCN(Cc2cccc(C(F)(F)F)c2Cl)CC(c2ccccc2)c2ccccc2)c1 [Compound 3, 3-[3-({[2-chloro-3-(trifluoromethyl)phenyl]methyl}(2,2-diphenylethyl)amino)propoxy]benzoic acid]
Emax at 1 µM ([1]; Homo sapiens, MeWo, 1 μM): > 40% | Emax at 10 µM ([1]; Homo sapiens, MeWo, 10 μM): < 40%

O=C(O)Cc1cccc(OCCCN(Cc2cccc3c2OC(F)(F)O3)CC(c2ccccc2)c2ccccc2)c1 [Compound 26, 2[3-(3-{[(2,2-difluoro-2H-1,3-benzodioxol-4-yl)methyl](2,2-diphenylethyl)amino}propoxy)phenyl]acetic acid]
Emax at 1 µM ([1]; Homo sapiens, MeWo, 1 μM): < 40% | Emax at 10 µM ([1]; Homo sapiens, MeWo, 10 μM): < 40%

COC(=O)c1c(F)cc(OCCCN(Cc2cccc(C(F)(F)F)c2Cl)CC(c2ccccc2)c2ccccc2)cc1S(C)(=O)=O [Compound 64, methyl 4-[3-({[2-chloro-3-(trifluoromethyl)phenyl]methyl}(2,2-diphenylethyl)amino)propoxy]-2-fluoro-6-methanesulfonylbenzoate]
EC50 ([1]; Homo sapiens, MeWo): < 1000 nM | Emax at 1 µM ([1]; Homo sapiens, MeWo, 1 μM): > 80% | Emax at 10 µM ([1]; Homo sapiens, MeWo, 10 μM): > 80%

CS(=O)(=O)NC(=O)Cc1cccc(OCCCN(Cc2cccc(C(F)(F)F)c2Cl)CC(c2ccccc2)c2ccccc2)c1 [Compound 2, 2-{3-[3-({[2-chloro-3-(trifluoromethyl)phenyl]methyl}(2,2-diphenylethyl)amino)propoxy]phenyl}-N-methanesulfonylacetamide]
Emax at 1 µM ([1]; Homo sapiens, MeWo, 1 μM): > 40% | Emax at 10 µM ([1]; Homo sapiens, MeWo, 10 μM): > 40%

O=C(O)Cc1cccc(OCCCN(Cc2cccc(OC(F)(F)F)c2)CC(c2ccccc2)c2ccccc2)c1 [Compound 24]
Emax at 1 µM ([1]; Homo sapiens, MeWo, 1 μM): > 40% | Emax at 10 µM ([1]; Homo sapiens, MeWo, 10 μM): > 40%

CS(=O)(=O)c1cc(OCCCN(Cc2cccc(C(F)(F)F)c2Cl)CC(c2ccccc2)C2CCCCC2)cc(F)c1CO (stereo not drawn) [Compound 78, {4-[3-({[2-chloro-3-(trifluoromethyl)phenyl]methyl}(2-cyclohexyl-2-phenylethyl)amino)propoxy]-2-fluoro-6-methanesulfonylphenyl}methanol]
Emax at 1 µM ([1]; Homo sapiens, MeWo, 1 μM): > 40%

O=C1Cc2cc(OCCCN(Cc3cccc(C(F)(F)F)c3Cl)CC(c3ccccc3)c3ccccc3)ccc2CO1 [Compound 6, 6-[3-({[2-chloro-3-(trifluoromethyl)phenyl]methyl}(2,2-diphenylethyl)amino)propoxy]-3,4-dihydro-1H-2-benzopyran-3-one]
EC50 ([1]; Homo sapiens, MeWo): < 300 nM | Emax at 1 µM ([1]; Homo sapiens, MeWo, 1 μM): > 80% | Emax at 10 µM ([1]; Homo sapiens, MeWo, 10 μM): > 40%
